Measured values: US20180327367A1, “MACROCYCLIC BROAD SPECTRUM ANTIBIOTICS” (priority 2015, published 2018)
Converted amounts (≈) assume the structure as drawn. Read-outs that look alike come from different tables or passages of the source.

Key:
[1] = system: Methicillin Resistant Staphylococcus aureus strain USA 300, NRS384; assay: Minimum inhibitory concentration, broth micro-dilution (CLSI), S. aureus; format: cell-based; details: Staphylococcus aureus, MRSA / NRS 384 / USA300, 22 h, 35° C., 22 hours
How it was run: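 Colonies grown 20 hours at 35° C were suspended in cation-adjusted Mueller Hinton Broth with 0.002% Tween-80. Cells were then added to 2-fold compound dilutions starting at 4 or 0.5 μg/mL, at OD600 0.0005.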

[2] = system: Escherichia coli MC4100 harboring the IMP4213 (E. coli IMP); assay: microbe, parasite or virus in culture; format: cell-based; details: Escherichia coli, 22 h, read-out: MIC (μg/mL) E. coli IMP, E. coli MC4100 IMP4213, increased outer-membrane permeability; 35° C., 22 hours
How it was run: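 Broth micro-dilution per CLSI in cation-adjusted Mueller Hinton Broth with 0.002% Tween-80; E. coli MC4100 carries IMP4213, raising outer-membrane permeability. Compounds tested as 2-fold serial dilutions (10 concentrations) from 4 μg/mL (protocol 2) or 0.5 μg/mL (protocol 3); inoculum OD600 0.0005, 35° C for 22 hours.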

[3] = system: Escherichia coli ATCC 25922; assay: Minimum inhibitory concentration, broth micro-dilution (CLSI), E. coli; format: cell-based; details: Escherichia coli, ATCC25922, 22 h, 35° C., 22 hours
[4] = biological target: T1, SpsB (Staphylococcus aureus signal peptidase) (Staphylococcus aureus, UniProt P0A070); assay: cell-based; format: biochemical; details: SpsB IC50, whole-cell S. aureus (USA300 background, overexpressing SpsB) as SpsB source; fluorogenic peptide substrate, kinetic read 30 min
T1 construct: This assay uses a suspension of Staphylococcus aureus cells as a source of SpsB instead of recombinant SpsB protein; endogenous in cells; host or cells: S. aureus, USA300 background, overexpressing SpsB (whole-cell suspension from frozen pellets)
T1 sequence (P0A070 whole entry): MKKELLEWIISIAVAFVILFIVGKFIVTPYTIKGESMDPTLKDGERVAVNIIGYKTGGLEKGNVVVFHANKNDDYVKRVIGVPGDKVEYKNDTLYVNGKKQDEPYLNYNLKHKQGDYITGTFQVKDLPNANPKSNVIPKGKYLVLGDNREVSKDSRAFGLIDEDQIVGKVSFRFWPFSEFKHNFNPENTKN
How it was run: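 Whole S. aureus cells (USA300, overexpressing SpsB) in PBS with MgCl2, CaCl2 and 0.1% Tween-80 served as enzyme source, mixed with 20 μM stock of (Dabcyl)βAla-KPAKAAE(Edans) substrate before use. Fluorescence (ex 340/em 490 nm) read kinetically over 30 min. IC50 from reaction rate versus 11-point inhibitor concentration.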

[5] = MRSA USA 300 NRS384, read-out: MIC (μg/mL) S. aureus
[6] = E. coli ATCC 25922, read-out: MIC (μg/mL) E. coli
[7] = read-out: MIC (μg/mL) S. aureus, MRSA USA 300 NRS384
[8] = read-out: MIC (μg/mL) E. coli, E. coli ATCC 25922

SMILES | MIC [1, 5] [µg/mL] | MIC [2] [µg/mL] | MIC [3, 6] [µg/mL] | IC50 [4] [nM] | MIC [1, 7] [µg/mL] | MIC [3, 8] [µg/mL]
CCCCc1ccc(C(=O)N[C@@H](CCC(N)=O)C(=O)N(C)[C@@H]2C(=O)N[C@@H](C)C(=O)N[C@H](C(=O)NCC#N)Cc3ccc(OCCN)c(c3)-c3cc2ccc3OCCN)c(C)c1 [Compound 245] | 1 (≈ 1.19 µM) | 0.38 (≈ 0.452 µM) | > 64 | 6.3 | – | –
CCCCCCc1ccc(C(=O)N[C@@H](CCC(N)=O)C(=O)N(C)[C@@H]2C(=O)N[C@@H](C)C(=O)N[C@H](C(=O)NCC#N)Cc3ccc(OCCN)c(c3)-c3cc2ccc3OCCN)c(C)c1 [Compound 246] | 0.13 (≈ 0.15 µM) | 0.063 (≈ 0.0726 µM) | 16 (≈ 18.4 µM) | 1.1 | – | –
CCCCc1ccc(-c2ccc(C(=O)N[C@@H](CO)C(=O)N(C)[C@@H]3C(=O)N[C@@H](C)C(=O)N[C@H](C(=O)NCC#N)Cc4ccc(OCCN)c(c4)-c4cc3ccc4OCCN)cc2)cc1 [Compound 249] | 0.13 (≈ 0.151 µM) | 0.012 (≈ 0.0139 µM) | 0.69 (≈ 0.801 µM) | 1.2 | – | –
C[C@@H]1NC(=O)[C@@H](N(C)C(=O)[C@H](CO)NC(=O)c2ccc(-c3ccc(Cl)cc3)nc2)c2ccc(OCCN)c(c2)-c2cc(ccc2OCCN)C[C@@H](C(=O)NCC#N)NC1=O [Compound 250] | – | 0.25 (≈ 0.297 µM) | – | 7 | 1 (≈ 1.19 µM) | 64 (≈ 76.2 µM)
CCCCCCCCCCCC(=O)N[C@@H](CCC(=O)O)C(=O)N(C)[C@@H]1C(=O)N[C@@H](C)C(=O)N[C@H](C(=O)NCC#N)Cc2ccc(OCCN)c(c2)-c2cc1ccc2OCCN [Compound 253] | 2 (≈ 2.36 µM) | 2 (≈ 2.36 µM) | > 64 | 12 | – | –
CCCCCCCCCC(=O)N[C@@H](CCSC)C(=O)N(C)[C@@H]1C(=O)N[C@@H](C)C(=O)N[C@H](C(=O)NCC#N)Cc2ccc(OCCN)c(c2)-c2cc1ccc2OCCN [Compound 254] | 0.5 (≈ 0.607 µM) | 0.5 (≈ 0.607 µM) | 48 (≈ 58.3 µM) | 1.6 | – | –
CCCCCCCCCCCC(=O)N[C@H](C(=O)N(C)[C@@H]1C(=O)N[C@@H](C)C(=O)N[C@H](C(=O)NCC#N)Cc2ccc(OCCN)c(c2)-c2cc1ccc2OCCN)[C@@H](C)O [Compound 256] | 0.19 (≈ 0.231 µM) | 0.094 (≈ 0.114 µM) | 16 (≈ 19.5 µM) | 0.8 | – | –
CCCCCCCCCCCC(=O)N[C@@H](CCO)C(=O)N(C)[C@@H]1C(=O)N[C@@H](C)C(=O)N[C@H](C(=O)NCC#N)Cc2ccc(OCCN)c(c2)-c2cc1ccc2OCCN [Compound 257] | 0.13 (≈ 0.158 µM) | 0.063 (≈ 0.0767 µM) | 12 (≈ 14.6 µM) | 0.92 | – | –
CCCCc1ccc(C(=O)N[C@@H](CCO)C(=O)N(C)[C@@H]2C(=O)N[C@@H](C)C(=O)N[C@H](C(=O)NCC#N)Cc3ccc(OCCN)c(c3)-c3cc2ccc3OCCN)c(C)c1 [Compound 258] | 1 (≈ 1.23 µM) | 0.19 (≈ 0.234 µM) | 64 (≈ 78.7 µM) | 2.8 | – | –
CCCCCCCc1ccc(C(=O)N[C@@H](CCO)C(=O)N(C)[C@@H]2C(=O)N[C@@H](C)C(=O)N[C@H](C(=O)NCC#N)Cc3ccc(OCCN)c(c3)-c3cc2ccc3OCCN)c(C)c1 [Compound 260] | 0.094 (≈ 0.11 µM) | 0.031 (≈ 0.0363 µM) | 2 (≈ 2.34 µM) | 1.1 | – | –
Cc1cc(-c2ccc(CC(C)C)cc2)ccc1C(=O)N[C@@H](CCO)C(=O)N(C)[C@@H]1C(=O)N[C@@H](C)C(=O)N[C@H](C(=O)NCC#N)Cc2ccc(OCCN)c(c2)-c2cc1ccc2OCCN [Compound 261] | 0.13 (≈ 0.146 µM) | 0.047 (≈ 0.0529 µM) | 0.5 (≈ 0.562 µM) | 4.6 | – | –
CCCCCCCCc1ccc(C(=O)N[C@@H](CCO)C(=O)N(C)[C@@H]2C(=O)N[C@@H](C)C(=O)N[C@H](C(=O)NCC#N)Cc3ccc(OCCN)c(c3)-c3cc2ccc3OCCN)c(C)c1 [Compound 262] | 0.063 (≈ 0.0725 µM) | 0.02 (≈ 0.023 µM) | 1 (≈ 1.15 µM) | 0.9 | – | –
CCCCCCCCc1ccc(C(=O)N[C@@H](CCNCC(=O)O)C(=O)N(C)[C@@H]2C(=O)N[C@@H](C)C(=O)N[C@H](C(=O)NCC#N)Cc3ccc(OCCN)c(c3)-c3cc2ccc3OCCN)c(C)c1 [Compound 263] | 0.13 (≈ 0.14 µM) | 0.023 (≈ 0.0248 µM) | 2 (≈ 2.16 µM) | 1.1 | – | –
CCCCCCCCCCCC(=O)N[C@@H](CCCO)C(=O)N(C)[C@@H]1C(=O)N[C@@H](C)C(=O)N[C@H](C(=O)NCC#N)Cc2ccc(OCCN)c(c2)-c2cc1ccc2OCCN [Compound 264] | 0.13 (≈ 0.156 µM) | 0.094 (≈ 0.113 µM) | 16 (≈ 19.2 µM) | 2 | – | –
CCC(C)(C)c1ccc(C(=O)N[C@@H](CCN)C(=O)N(C)[C@@H]2C(=O)N[C@@H](C)C(=O)N[C@H](C(=O)NCC#N)Cc3ccc(OCCN)c(c3)-c3cc2ccc3OCCN)c(C)c1 [Compound 265] | – | 0.043 (≈ 0.0521 µM) | – | 0.89 | 0.13 (≈ 0.157 µM) | 2.5 (≈ 3.03 µM)
Cc1cc(C(C)(C)C)ccc1C(=O)N[C@@H](CCN)C(=O)N(C)[C@@H]1C(=O)N[C@@H](C)C(=O)N[C@H](C(=O)NCC#N)Cc2ccc(OCCN)c(c2)-c2cc1ccc2OCCN [Compound 266] | 0.5 (≈ 0.616 µM) | 0.083 (≈ 0.102 µM) | 3.5 (≈ 4.31 µM) | 2.1 | – | –
CCCCCCCOc1ccc(C(=O)N[C@@H](CCN)C(=O)N(C)[C@@H]2C(=O)N[C@@H](C)C(=O)N[C@H](C(=O)NCC#N)Cc3ccc(OCCN)c(c3)-c3cc2ccc3OCCN)c(Cl)c1 [Compound 267] | – | 0.012 (≈ 0.0135 µM) | – | 0.63 | 0.027 (≈ 0.0303 µM) | 0.13 (≈ 0.146 µM)
CCCCCCCOc1ccc(C(=O)N[C@@H](CCN)C(=O)N(C)[C@@H]2C(=O)N[C@@H](C)C(=O)N[C@H](C(=O)NCC#N)Cc3ccc(OCCN)c(c3)-c3cc2ccc3OCCN)c(C)c1 [Compound 268] | 0.035 (≈ 0.0402 µM) | < 0.0039 | 0.22 (≈ 0.253 µM) | 0.86 | – | –
CCCCOc1ccc(C(=O)N[C@@H](CCN)C(=O)N(C)[C@@H]2C(=O)N[C@@H](C)C(=O)N[C@H](C(=O)NCC#N)Cc3ccc(OCCN)c(c3)-c3cc2ccc3OCCN)c(Cl)c1 [Compound 269] | 0.25 (≈ 0.295 µM) | 0.023 (≈ 0.0271 µM) | 1 (≈ 1.18 µM) | 1.2 | – | –
CCCCCOc1ccc(C(=O)N[C@@H](CCN)C(=O)N(C)[C@@H]2C(=O)N[C@@H](C)C(=O)N[C@H](C(=O)NCC#N)Cc3ccc(OCCN)c(c3)-c3cc2ccc3OCCN)c(Cl)c1 [Compound 270] | 0.094 (≈ 0.109 µM) | 0.016 (≈ 0.0186 µM) | 0.63 (≈ 0.73 µM) | 0.89 | – | –
CCCCCCOc1ccc(C(=O)N[C@@H](CCN)C(=O)N(C)[C@@H]2C(=O)N[C@@H](C)C(=O)N[C@H](C(=O)NCC#N)Cc3ccc(OCCN)c(c3)-c3cc2ccc3OCCN)c(Cl)c1 [Compound 271] | 0.047 (≈ 0.0536 µM) | 0.016 (≈ 0.0183 µM) | 0.31 (≈ 0.354 µM) | 1.1 | – | –
CCCCCCCCOc1ccc(C(=O)N[C@@H](CCN)C(=O)N(C)[C@@H]2C(=O)N[C@@H](C)C(=O)N[C@H](C(=O)NCC#N)Cc3ccc(OCCN)c(c3)-c3cc2ccc3OCCN)c(Cl)c1 [Compound 272] | 0.047 (≈ 0.052 µM) | 0.0078 (≈ 0.00862 µM) | 0.13 (≈ 0.144 µM) | 0.7 | – | –
CCCCCCCOc1ccc(C(=O)N[C@@H](CCN)C(=O)N(C)[C@@H]2C(=O)N[C@@H](C)C(=O)N[C@H](C(=O)NCC#N)Cc3ccc(OCCN)c(c3)-c3cc2ccc3OCCN)c(C(F)(F)F)c1 [Compound 273] | 0.031 (≈ 0.0335 µM) | 0.016 (≈ 0.0173 µM) | 0.5 (≈ 0.541 µM) | 0.6 | – | –
Cc1cc(OCCC(C)C)ccc1C(=O)N[C@@H](CCN)C(=O)N(C)[C@@H]1C(=O)N[C@@H](C)C(=O)N[C@H](C(=O)NCC#N)Cc2ccc(OCCN)c(c2)-c2cc1ccc2OCCN [Compound 274] | 0.13 (≈ 0.154 µM) | 0.02 (≈ 0.0238 µM) | 1.3 (≈ 1.54 µM) | 0.79 | – | –
